Results as given in ChEMBL document CHEMBL5463721, “Data for DCP probe WEB2086” (2023).

What was measured:
[1] = target: Histamine H2 receptor (Homo sapiens) (UniProt P25021); experiment: H2 Eurofins-Cerep binding assay; design: ligand concentration 0.075 nM; details: Compound concentration 10.0 uM
[2] = target: Kappa-type opioid receptor (Homo sapiens) (UniProt P41145); experiment: kappa (KOP) Eurofins-Cerep binding assay; details: Compound concentration 10.0 uM
[3] = target: Cannabinoid receptor 2 (Homo sapiens) (UniProt P34972); experiment: Activity against CB2/PERIPH/H in the Eurofins Cerep SafetyScreen44 (BI) by Radioactive Assay (Cerep_37); details: Compound concentration 10.0 uM
[4] = target: cGMP-inhibited 3',5'-cyclic phosphodiesterase 3A (Homo sapiens) (UniProt Q14432); experiment: Inhibitor of PDE3A in the Eurofins Cerep SafetyScreen44 (BI) by HTRF-homogeneous time resolved fluoresce (Cerep_4072); details: Compound concentration 10.0 uM
[5] = target: Muscarinic acetylcholine receptor M3 (Homo sapiens) (UniProt P20309); experiment: M3 Eurofins-Cerep binding assay; design: ligand concentration 0.2 nM; details: Compound concentration 10.0 uM
[6] = target: Angiotensin-converting enzyme (Homo sapiens) (UniProt P12821); experiment: Activity against ACE(HU_AMTCH400) in the Eurofins Cerep SafetyScreen44 (BI) by Photometry (Cerep_3441); details: Compound concentration 10.0 uM
[7] = target: Muscarinic acetylcholine receptor M1 (Homo sapiens) (UniProt P11229); experiment: M1 Eurofins-Cerep binding assay; design: ligand concentration 2 nM; details: Compound concentration 10.0 uM
[8] = target: Alpha-1A adrenergic receptor (Homo sapiens) (UniProt P35348); experiment: Agonist activity in the Eurofins Cerep SafetyScreen44 (BI) against ALPHA1AH_ANTAG by Scintillation counting (Cerep_2338); details: Compound concentration 10.0 uM
[9] = species: Rattus norvegicus; experiment: Activity against BZD/CENTR/R in the Eurofins Cerep SafetyScreen44 (BI) by Radioactive Assay (Cerep_28); format: protein-complex assay; details: Compound concentration 10.0 uM
[10] = target: Beta-2 adrenergic receptor (Homo sapiens) (UniProt P07550); experiment: beta 2 Eurofins-Cerep binding assay; details: Compound concentration 10.0 uM
[11] = target: Prostaglandin G/H synthase 1 (Homo sapiens) (UniProt P23219); experiment: Inhibitor of COX-1 in the Eurofins Cerep SafetyScreen44 (BI) by Fluorimetry (Cerep_4173); details: Compound concentration 10.0 uM
[12] = target: Histamine H1 receptor (Homo sapiens) (UniProt P35367); experiment: H1 Eurofins-Cerep binding assay; design: ligand concentration 1 nM; details: Compound concentration 10.0 uM
[13] = target: Delta-type opioid receptor (Homo sapiens) (UniProt P41143); experiment: delta (DOP) Eurofins-Cerep binding assay; design: ligand concentration 0.5 nM; details: Compound concentration 10.0 uM
[14] = species: Rattus norvegicus; experiment: KV channel Eurofins-Cerep binding assay; design: ligand concentration 0.01 nM; details: Compound concentration 10.0 uM
[15] = target: D(2) dopamine receptor (Homo sapiens) (UniProt P14416); experiment: Agonist activity in the Eurofins Cerep SafetyScreen44 (BI) against D2SH_AGON by Scintillation counting (Cerep_1322); details: Compound concentration 10.0 uM
[16] = target: MAO-A (amine oxidase [flavin-containing] A) (Homo sapiens, UniProt P21397); experiment: Agonist activity in the Eurofins Cerep SafetyScreen44 (BI) against MAO-A_ANTAG by Scintillation counting (Cerep_443); design: scale not given: the % may be the effect or the level left; details: rat, compound concentration 10 uM, read-out: % Ctrl
[17] = target: Sodium-dependent noradrenaline transporter (Homo sapiens) (UniProt P23975); experiment: norepinephrine transporter Eurofins-Cerep binding assay; design: ligand concentration 1 nM; details: Compound concentration 10.0 uM
[18] = target: Tyrosine-protein kinase Lck (Homo sapiens) (UniProt P06239); experiment: Inhibitor of LCK_CE in the Eurofins Cerep SafetyScreen44 (BI) by lanthanide chelation excitation (Cerep_2906); details: Compound concentration 10.0 uM
[19] = target: Prostaglandin G/H synthase 2 (Homo sapiens) (UniProt P35354); experiment: Inhibitor of COX-2 in the Eurofins Cerep SafetyScreen44 (BI) by Fluorimetry (Cerep_4186); details: Compound concentration 10.0 uM
[20] = target: Sodium-dependent serotonin transporter (Homo sapiens) (UniProt P31645); experiment: 5-HT transporter Eurofins-Cerep binding assay; design: ligand concentration 2 nM; details: Compound concentration 10.0 uM
[21] = target: hERG (KCNH2) (Homo sapiens, UniProt Q12809); experiment: Inhibitor of HERG_DOFETILIDE in the Eurofins Cerep SafetyScreen44 (BI) by Scintillation counting (Cerep_4094); design: scale not given: the % may be the effect or the level left; details: probe [3H] dofetilide, compound concentration 10 uM, read-out: % Ctrl
[22] = target: Cholecystokinin receptor type A (Homo sapiens) (UniProt P32238); experiment: CCK1 (CCKA) Eurofins-Cerep binding assay; design: ligand concentration 0.08 nM; details: Compound concentration 10.0 uM
[23] = target: D(1A) dopamine receptor (Homo sapiens) (UniProt P21728); experiment: D1 Eurofins-Cerep binding assay; design: ligand concentration 0.3 nM; details: Compound concentration 10.0 uM
[24] = target: Vasopressin V1a receptor (Homo sapiens) (UniProt P37288); experiment: V1a Eurofins-Cerep binding assay; design: ligand concentration 0.3 nM; details: Compound concentration 10.0 uM
[25] = target: Mu-type opioid receptor (Homo sapiens) (UniProt P35372); experiment: mu (MOP) Eurofins-Cerep binding assay; design: ligand concentration 0.5 nM; details: Compound concentration 10.0 uM
[26] = target: 5-hydroxytryptamine receptor 1B (Homo sapiens) (UniProt P28222); experiment: 5-HT1B Eurofins-Cerep binding assay; design: ligand concentration 1 nM; details: Compound concentration 10.0 uM
[27] = target: 5-hydroxytryptamine receptor 1A (Homo sapiens) (UniProt P08908); experiment: 5-HT1A Eurofins-Cerep binding assay; design: ligand concentration 0.5 nM; details: Compound concentration 10.0 uM
[28] = target: 5-hydroxytryptamine receptor 2B (Homo sapiens) (UniProt P41595); experiment: 5-HT2B Eurofins-Cerep binding assay; details: Compound concentration 10.0 uM
[29] = target: 3',5'-cyclic-AMP phosphodiesterase 4D (Homo sapiens) (UniProt Q08499); experiment: Inhibitor of PDE4D2 in the Eurofins Cerep SafetyScreen44 (BI) by Scintillation counting (Cerep_4077); details: Compound concentration 10.0 uM
[30] = target: Cannabinoid receptor 1 (Homo sapiens) (UniProt P21554); experiment: CB1 Eurofins-Cerep binding assay; details: Compound concentration 10.0 uM
[31] = species: Homo sapiens; experiment: Agonist activity in the Eurofins Cerep SafetyScreen44 (BI) against N_NEURO_A4B2 by Radioligand Binding (Cerep_3029); format: protein-complex assay; details: Compound concentration 10.0 uM
[32] = target: 5-hydroxytryptamine receptor 2A (Homo sapiens) (UniProt P28223); experiment: Agonist activity in the Eurofins Cerep SafetyScreen44 (BI) against 5HT2AH_AGON by Scintillation counting (Cerep_471); details: Compound concentration 10.0 uM
[33] = target: Adenosine receptor A2a (Homo sapiens) (UniProt P29274); experiment: A2A Eurofins-Cerep binding assay; design: ligand concentration 6 nM; details: Compound concentration 10.0 uM
[34] = target: L-type calcium channel (dihydropyridine site), Cav1.2 alpha-1C (Rattus norvegicus, UniProt P22002); experiment: Inhibitor of CA+/DHPSI/R in the Eurofins Cerep SafetyScreen44 (BI) by Radioactive Assay (Cerep_161); format: protein assay; design: scale not given: the % may be the effect or the level left; details: rat brain, probe [3H](+)PN200-110, compound concentration 10 uM, read-out: % Ctrl
[35] = target: Muscarinic acetylcholine receptor M2 (Homo sapiens) (UniProt P08172); experiment: M2 Eurofins-Cerep binding assay; design: ligand concentration 2 nM; details: Compound concentration 10.0 uM
[36] = target: Beta-1 adrenergic receptor (Homo sapiens) (UniProt P08588); experiment: beta 1 Eurofins-Cerep binding assay; design: ligand concentration 0.3 nM; details: Compound concentration 10.0 uM
[37] = target: Endothelin-1 receptor (Homo sapiens) (UniProt P25101); experiment: ETA Eurofins-Cerep binding assay; design: ligand concentration 0.03 nM; details: Compound concentration 10.0 uM
[38] = target: Glutamate NMDA receptor (Rattus norvegicus) (UniProt P35439+Q00959+Q00960+Q00961+Q62645+Q8VHN2+Q9R1M7); experiment: Inhibitor of NMDA/R in the Eurofins Cerep SafetyScreen44 (BI) by Radioactive Assay (Cerep_66); format: protein-complex assay; details: Compound concentration 10.0 uM
[39] = target: Alpha-2A adrenergic receptor (Homo sapiens) (UniProt P08913); experiment: Inhibitor of ALPHA2A/HU in the Eurofins Cerep SafetyScreen44 (BI) by Radioactive Assay (Cerep_13); details: Compound concentration 10.0 uM
[40] = target: Sodium-dependent dopamine transporter (Homo sapiens) (UniProt Q01959); experiment: dopamine transporter Eurofins-Cerep binding assay; details: Compound concentration 10.0 uM
[41] = target: 5-hydroxytryptamine receptor 3A (Homo sapiens) (UniProt P46098); experiment: 5-HT3 Eurofins-Cerep binding assay; design: ligand concentration 0.5 nM; details: Compound concentration 10.0 uM
[42] = target: Glucocorticoid receptor (Homo sapiens) (UniProt P04150); experiment: GR Eurofins-Cerep binding assay; details: Compound concentration 10.0 uM
[43] = target: Androgen receptor (Homo sapiens) (UniProt P10275); details: Compound concentration 10.0 uM
Description: Activity against ANDROGEN/H in the Eurofins Cerep SafetyScreen44 (BI) by Radioactive Assay (Cerep_933)

[44] = target: Platelet-activating factor receptor (Homo sapiens, UniProt P25105); experiment: PAF Receptor Binding

Beta-1 adrenergic receptor (Homo sapiens), sequence (P08588 whole entry, looked up): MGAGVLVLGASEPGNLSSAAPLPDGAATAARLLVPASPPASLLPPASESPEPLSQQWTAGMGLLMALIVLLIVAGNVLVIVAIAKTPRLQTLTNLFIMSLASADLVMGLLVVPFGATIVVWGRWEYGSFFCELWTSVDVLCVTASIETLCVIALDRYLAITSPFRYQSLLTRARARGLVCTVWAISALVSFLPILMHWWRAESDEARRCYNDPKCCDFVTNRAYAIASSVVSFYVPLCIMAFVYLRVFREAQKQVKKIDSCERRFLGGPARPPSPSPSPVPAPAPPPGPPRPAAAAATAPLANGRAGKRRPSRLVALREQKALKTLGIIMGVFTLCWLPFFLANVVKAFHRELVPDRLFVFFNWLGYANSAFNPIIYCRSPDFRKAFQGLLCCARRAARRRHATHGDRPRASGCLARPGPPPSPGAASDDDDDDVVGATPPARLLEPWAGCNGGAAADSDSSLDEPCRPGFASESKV
Tyrosine-protein kinase Lck (Homo sapiens), sequence (P06239 2-509 limits assumed): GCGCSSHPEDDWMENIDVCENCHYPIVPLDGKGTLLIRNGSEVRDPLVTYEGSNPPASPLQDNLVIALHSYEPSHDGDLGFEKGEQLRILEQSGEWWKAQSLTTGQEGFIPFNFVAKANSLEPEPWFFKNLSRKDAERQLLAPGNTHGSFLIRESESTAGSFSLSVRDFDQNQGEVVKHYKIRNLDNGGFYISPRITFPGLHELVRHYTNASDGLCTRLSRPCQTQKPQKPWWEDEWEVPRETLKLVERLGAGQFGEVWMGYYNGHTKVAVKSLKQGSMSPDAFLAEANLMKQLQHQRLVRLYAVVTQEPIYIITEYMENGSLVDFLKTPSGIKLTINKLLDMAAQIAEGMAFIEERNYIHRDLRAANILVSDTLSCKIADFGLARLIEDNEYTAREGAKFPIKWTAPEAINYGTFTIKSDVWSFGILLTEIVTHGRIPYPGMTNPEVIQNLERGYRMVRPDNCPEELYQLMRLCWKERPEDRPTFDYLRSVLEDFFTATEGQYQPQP
hERG (KCNH2), sequence (Q12809 whole entry): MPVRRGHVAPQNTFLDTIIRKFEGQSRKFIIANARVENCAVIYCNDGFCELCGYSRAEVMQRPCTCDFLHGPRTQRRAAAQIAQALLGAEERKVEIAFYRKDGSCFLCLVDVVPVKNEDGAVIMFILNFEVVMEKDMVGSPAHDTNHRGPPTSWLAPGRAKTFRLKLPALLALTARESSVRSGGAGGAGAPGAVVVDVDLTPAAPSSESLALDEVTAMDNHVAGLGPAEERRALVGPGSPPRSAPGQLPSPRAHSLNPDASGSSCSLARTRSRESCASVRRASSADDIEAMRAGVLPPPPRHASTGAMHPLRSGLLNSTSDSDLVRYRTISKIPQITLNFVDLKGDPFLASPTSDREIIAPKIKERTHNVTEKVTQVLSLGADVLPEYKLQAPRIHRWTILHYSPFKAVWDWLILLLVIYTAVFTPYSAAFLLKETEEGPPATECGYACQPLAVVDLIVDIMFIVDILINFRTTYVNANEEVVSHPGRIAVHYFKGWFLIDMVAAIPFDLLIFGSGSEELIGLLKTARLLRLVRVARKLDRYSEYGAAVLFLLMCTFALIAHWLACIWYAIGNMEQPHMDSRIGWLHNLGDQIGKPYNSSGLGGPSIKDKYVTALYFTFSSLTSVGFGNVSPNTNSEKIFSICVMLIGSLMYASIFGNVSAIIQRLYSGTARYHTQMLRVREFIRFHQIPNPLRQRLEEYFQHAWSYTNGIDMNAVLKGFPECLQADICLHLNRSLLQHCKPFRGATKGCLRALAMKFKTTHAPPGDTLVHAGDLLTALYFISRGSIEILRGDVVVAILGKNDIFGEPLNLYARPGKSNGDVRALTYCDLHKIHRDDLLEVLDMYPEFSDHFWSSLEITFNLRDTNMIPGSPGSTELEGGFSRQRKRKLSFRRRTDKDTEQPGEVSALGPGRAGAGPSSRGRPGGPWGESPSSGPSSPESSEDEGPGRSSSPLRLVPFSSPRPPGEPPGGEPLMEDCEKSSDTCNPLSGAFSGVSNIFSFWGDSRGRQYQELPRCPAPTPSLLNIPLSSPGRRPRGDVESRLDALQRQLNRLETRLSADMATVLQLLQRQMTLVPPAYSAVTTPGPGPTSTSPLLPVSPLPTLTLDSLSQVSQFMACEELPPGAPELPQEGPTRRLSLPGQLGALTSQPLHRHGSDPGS
Delta-type opioid receptor (Homo sapiens), sequence (P41143 whole entry): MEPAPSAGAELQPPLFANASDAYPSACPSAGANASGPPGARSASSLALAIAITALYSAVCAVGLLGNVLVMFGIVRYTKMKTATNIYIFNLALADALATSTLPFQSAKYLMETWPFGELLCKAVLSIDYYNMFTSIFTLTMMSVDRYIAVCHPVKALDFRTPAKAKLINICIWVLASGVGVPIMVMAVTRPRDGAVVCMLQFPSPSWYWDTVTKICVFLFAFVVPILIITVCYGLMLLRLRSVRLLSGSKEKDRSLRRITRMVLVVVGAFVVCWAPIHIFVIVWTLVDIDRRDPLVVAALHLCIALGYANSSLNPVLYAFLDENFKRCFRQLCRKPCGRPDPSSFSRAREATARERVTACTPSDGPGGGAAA
Sodium-dependent noradrenaline transporter (Homo sapiens), sequence (P23975 whole entry): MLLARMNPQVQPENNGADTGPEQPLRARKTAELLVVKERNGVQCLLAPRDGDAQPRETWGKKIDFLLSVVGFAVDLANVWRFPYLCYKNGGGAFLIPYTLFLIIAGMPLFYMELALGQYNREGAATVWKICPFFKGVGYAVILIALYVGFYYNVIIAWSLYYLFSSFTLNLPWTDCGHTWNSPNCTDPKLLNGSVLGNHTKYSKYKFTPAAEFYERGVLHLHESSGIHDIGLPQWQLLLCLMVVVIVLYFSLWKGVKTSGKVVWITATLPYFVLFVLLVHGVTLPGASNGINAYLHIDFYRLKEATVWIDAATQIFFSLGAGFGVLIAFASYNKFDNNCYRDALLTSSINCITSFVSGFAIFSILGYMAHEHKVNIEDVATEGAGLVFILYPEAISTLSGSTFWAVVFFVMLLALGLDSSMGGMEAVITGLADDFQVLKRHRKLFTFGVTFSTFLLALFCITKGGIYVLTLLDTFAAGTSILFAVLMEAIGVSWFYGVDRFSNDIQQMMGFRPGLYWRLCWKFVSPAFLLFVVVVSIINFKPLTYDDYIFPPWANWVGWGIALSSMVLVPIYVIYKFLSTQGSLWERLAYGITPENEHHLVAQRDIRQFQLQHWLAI
Endothelin-1 receptor (Homo sapiens), sequence (P25101 whole entry): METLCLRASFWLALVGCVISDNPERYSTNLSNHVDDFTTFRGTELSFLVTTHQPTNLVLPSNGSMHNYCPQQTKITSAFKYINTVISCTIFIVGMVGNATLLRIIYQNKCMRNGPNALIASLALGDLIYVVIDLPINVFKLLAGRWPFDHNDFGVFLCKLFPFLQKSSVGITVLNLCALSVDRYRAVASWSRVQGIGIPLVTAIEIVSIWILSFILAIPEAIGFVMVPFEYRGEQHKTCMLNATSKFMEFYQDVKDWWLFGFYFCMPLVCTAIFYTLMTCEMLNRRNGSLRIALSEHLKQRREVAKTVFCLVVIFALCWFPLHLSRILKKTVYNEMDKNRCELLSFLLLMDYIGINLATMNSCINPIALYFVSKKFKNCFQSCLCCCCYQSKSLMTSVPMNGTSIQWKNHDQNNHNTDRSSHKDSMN
D(1A) dopamine receptor (Homo sapiens), sequence (P21728 whole entry): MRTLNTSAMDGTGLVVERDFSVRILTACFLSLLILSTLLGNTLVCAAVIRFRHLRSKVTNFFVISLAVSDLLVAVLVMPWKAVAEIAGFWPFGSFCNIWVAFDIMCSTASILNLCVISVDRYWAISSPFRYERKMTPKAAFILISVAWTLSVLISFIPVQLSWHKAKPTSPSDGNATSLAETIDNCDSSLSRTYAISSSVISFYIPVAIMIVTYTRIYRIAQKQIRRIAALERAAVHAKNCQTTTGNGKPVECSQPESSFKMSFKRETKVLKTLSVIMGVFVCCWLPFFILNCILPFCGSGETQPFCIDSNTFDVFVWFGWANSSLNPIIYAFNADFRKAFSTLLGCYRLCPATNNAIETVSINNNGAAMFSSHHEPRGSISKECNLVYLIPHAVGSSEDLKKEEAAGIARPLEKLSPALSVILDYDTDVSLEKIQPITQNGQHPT
Adenosine receptor A2a (Homo sapiens), sequence (P29274 whole entry): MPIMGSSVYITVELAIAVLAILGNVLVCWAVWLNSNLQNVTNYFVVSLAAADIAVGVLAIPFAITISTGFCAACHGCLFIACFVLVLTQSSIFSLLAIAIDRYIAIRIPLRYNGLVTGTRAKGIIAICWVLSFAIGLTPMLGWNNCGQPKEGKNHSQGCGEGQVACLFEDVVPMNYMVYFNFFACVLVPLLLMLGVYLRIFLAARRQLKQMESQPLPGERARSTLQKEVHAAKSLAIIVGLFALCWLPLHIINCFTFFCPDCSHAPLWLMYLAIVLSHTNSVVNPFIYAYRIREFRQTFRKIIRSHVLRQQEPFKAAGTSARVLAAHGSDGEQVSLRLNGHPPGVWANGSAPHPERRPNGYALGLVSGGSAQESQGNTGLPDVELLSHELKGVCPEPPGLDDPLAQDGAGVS
Histamine H2 receptor (Homo sapiens), sequence (P25021 whole entry): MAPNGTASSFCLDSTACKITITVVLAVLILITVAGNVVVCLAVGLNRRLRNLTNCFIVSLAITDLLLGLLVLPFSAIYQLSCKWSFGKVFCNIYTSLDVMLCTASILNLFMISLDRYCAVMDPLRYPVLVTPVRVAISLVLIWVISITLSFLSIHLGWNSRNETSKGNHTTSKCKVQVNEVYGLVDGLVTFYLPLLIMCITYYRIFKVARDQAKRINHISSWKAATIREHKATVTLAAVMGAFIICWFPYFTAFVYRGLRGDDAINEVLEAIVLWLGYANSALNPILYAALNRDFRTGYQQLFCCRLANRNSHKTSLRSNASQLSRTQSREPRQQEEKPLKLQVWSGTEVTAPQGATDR

Cc1nnc2n1-c1sc(CCC(=O)N3CCOCC3)cc1C(c1ccccc1Cl)=NC2 [APAFANT]
residual activity [1]: 108%
residual activity [2]: 95%
residual activity [3]: 111%
residual activity [4]: 105%
residual activity [5]: 98%
residual activity [6]: 96%
residual activity [7]: 107%
residual activity [8]: 99%
residual activity [9]: 12%
residual activity [10]: 107%
residual activity [11]: 96%
residual activity [12]: 101%
residual activity [13]: 99%
residual activity [14]: 94%
residual activity [15]: 114%
activity at 10 µM [16]: 93% (not active)
residual activity [17]: 94%
residual activity [18]: 123%
residual activity [19]: 47%
residual activity [20]: 106%
activity at 10 µM [21]: 105% (not active)
residual activity [22]: 90%
residual activity [23]: 101%
residual activity [24]: 109%
residual activity [25]: 108%
residual activity [26]: 91%
residual activity [27]: 101%
residual activity [28]: 86%
residual activity [29]: 103%
residual activity [30]: 103%
residual activity [31]: 104%
residual activity [32]: 114%
residual activity [33]: 104%
activity at 10 µM [34]: 106% (not active)
residual activity [35]: 98%
residual activity [36]: 101%
residual activity [37]: 106%
residual activity [38]: 101%
residual activity [39]: 100%
residual activity [40]: 97%
residual activity [41]: 102%
residual activity [42]: 105%

Cc1nnc2n1-c1sc3c(c1C(c1ccccc1Cl)=NC2)C[C@@H](C(=O)N1CCOCC1)C3
residual activity [1]: 100%
residual activity [2]: 91%
residual activity [3]: 107%
residual activity [4]: 109%
residual activity [5]: 84%
residual activity [6]: 102%
residual activity [7]: 104%
residual activity [8]: 95%
residual activity [9]: 102%
residual activity [10]: 103%
residual activity [11]: 97%
residual activity [12]: 100%
residual activity [13]: 101%
residual activity [14]: 101%
residual activity [15]: 97%
activity at 10 µM ([16]; target entry is the homologue from another species): 107% (not active)
residual activity [17]: 99%
residual activity [18]: 106%
residual activity [19]: 96%
residual activity [20]: 98%
activity at 10 µM [21]: 93% (not active)
residual activity [22]: 90%
residual activity [43]: 106%
Kd [44]: 660 nM (not active)
residual activity [23]: 97%
residual activity [24]: 84%
residual activity [25]: 109%
residual activity [26]: 65%
residual activity [27]: 88%
residual activity [28]: 92%
residual activity [29]: 104%
residual activity [30]: 123%
residual activity [31]: 94%
residual activity [32]: 100%
residual activity [33]: 106%
activity at 10 µM [34]: 103% (not active)
residual activity [35]: 82%
residual activity [36]: 88%
residual activity [37]: 103%
residual activity [38]: 97%
residual activity [39]: 102%
residual activity [40]: 96%
residual activity [41]: 103%
residual activity [42]: 115%
